Patent US10800790B2, “Sesquiterpenoid STAT3 inhibitors” (University of Hawaii, priority 2013, dated 2020)
“Also recorded” adds a separate entry of the source. Where two headings read alike, the source gives them in different places.

Tests used:
[1] = target: T1, STAT3 (NIH3T3/v-Src nuclear extracts) (Mus musculus, UniProt P42227); assay: In vitro STAT3 DNA-binding activity/EMSA, nuclear extracts incubated with compound; format: biochemical; details: 5 micromolar, 30 min at room temperature
T1 construct: nuclear extracts prepared from v-Src-transformed mouse fibroblasts (NIH3T3/v-Src) containing active STAT3; endogenous in cells; host or cells: NIH3T3/v-Src mouse fibroblasts (nuclear extract)
Procedure: To further determine the effects of the bioactive agents on STAT3 activity, nuclear extracts prepared from v-Src-transformed mouse fibroblasts (NIH3T3/v-Src) containing active STAT3 were directly incubated with 5 micromolar compounds for 30 min at room temperature prior to performing STAT3 DNA-binding activity in vitro with EMSA analysis. […] These studies indicate that agents directly interact with STAT3 and disrupt STAT3:STAT3 dimers, thereby inhibiting its DNA-binding activity.
Data are representative of 2-3 independent determinations.
Nuclear extract preparations and DNA-binding/electrophoretic mobility shift assay (EMSA) were carried out as previously described (Xu, supra). Nuclear extract preparations and DNA-binding activity/electrophoretic mobility shift assay (EMSA) were carried out as previously described. U251 MG and MDA-MB-231 cells culture were pretreated with different concentrations of the compounds for the indicated period and then harvested for nuclear extract preparation and DNA-binding assay with EMSA analysis. The ^32P-labeled oligonucleotide probe used was hSIE (high-affinity sis-inducible element) from the c-fos gene, m67 variant (5′-[…]-3′) that binds STAT3. Except where indicated, nuclear extracts were pre-incubated with compound for 30 min at room temperature prior to incubation with the radiolabeled probe for 30 min at 30° C. before subjecting to EMSA analysis. Where appropriate, bands corresponding to DNA-binding activities were scanned and quantified for each concentration of compound using ImageJ and plotted as percent of control (vehicle) against concentration of compound, from which the IC50 values were derived.

[2] = tested on: U251MG glioblastoma cells; assay: CyQuant cell viability/proliferation assay, U251MG; format: cell-based, human; parameters: key to Activity against U251: +, active; −, no activity; +/−, poorly active; details: for Activity against U251: Table 1 grade, Table 1/FIG. 2 compound numbering; for Activity against the cell lines, in words: tested at 5 micromolar; for Cell-type selectivity of growth inhibition, in words: U251MG versus other cells incl. NIH3T3
Procedure: (§1) The cell viability assay was performed as previously reported (Zhang X, et al. (2010)). Briefly, a 10 millimolar concentration stock solution in dimethylsulfoxide (DMSO) of the tested molecule was first prepared. Next, the stock solution was diluted down to various working solutions in water. Thus, a formulation of the tested compound in a DMSO/water mixture was used to test for cell viability. (A novel small-molecule disrupts STAT3 SH2 domainphosphotyrosine interactions and STAT3-dependent tumor processes, Biochem Pharmacol 79:1398-1409; Zhao W, Jaganathan S, & Turkson J (2010), A cell-permeable STAT3 SH2 domain mimetic inhibits STAT3 activation and induces antitumor cell effects in vitro. J Biol Chem. 285:35855-35865). Cells (U251MG, MDA-MB-231 or NIH3T3) were obtained from ATCC (Manassas, Va.) and were cultured in 96-well plates at 2,000 cells per well for 24 h and were treated with compounds (5 micromolar concentration) for 72 h. Cell viabilty was determined using CyQuant assay, according to the manufacturer's (Invitrogen, CA, USA) instructions. Relative viability of the treated cells was normalized to the DMSO-treated control cells.

Stat3 = Stat3 (Homo sapiens, UniProt P40763); assay: Activity against Stat3 (Table 1 grade); format: biochemical; parameters: key: +, active; −, no activity; +/−, poorly active; details: Table 1/FIG. 2 compound numbering
[3] = tested on: pY705STAT3 in U251MG or MDA-MB-231 cells; assay: Immunoblotting of pY705STAT3 in treated tumor cells; details: 5 micromolar, U251MG or MDA-MB-231; for Effect on pY705STAT3 / STAT3 activity (immunoblot), in words: 0-24 h, Table 1/FIG. 2 numbering
Procedure: Positions of STATs:DNA complexes or proteins in gel are labeled; control lanes (0) represent nuclear extracts or whole-cell lysates prepared from 0.05% DMSO-treated cells. Data are representative of at least three to four independent determinations.
Lysates of equal total protein prepared in the lysis buffer (50 mM Hepes, pH 7.5, 150 mM NaCl, 2 mM EDTA, 1% Triton X-100, 0.1% SDS), were subjected to IP or Western blotting analysis. Antibodies against STAT3, pY705STAT3, Src, pY416Src, Erk1/2, and pT202/Y204Erk1/2 and GAPDH (Cell Signaling Technology, Danvers, Mass.), and anti-β-actin, and HSP105 (Santa Cruz Biotechnology, Dallas, Tex.) are from the designated sources.
Whole-cell lysates were prepared in boiling SDS sample loading buffer to extract total proteins, as reported previously. […] Nitrocellulose membranes were probed with primary antibodies, and the detection of horseradish peroxidase-conjugated secondary antibodies by enhanced chemiluminescence (Amersham) was performed. Antibodies used were monoclonal anti-pYSTAT3 and anti-STAT3 antibodies (Cell Signaling Technology, Danvers, Mass.).

[4] = tested on: intracellular glutathione; details: literature reports, cited from earlier work
[5] = tested on: STAT3 tyrosine phosphorylation; details: Butturini et al. 2011; cited from earlier work
[6] = tested on: MDA-MB-231 breast cancer cells; assay: CyQuant cell viability/proliferation assay, MDA-MB-231; format: cell-based, human; parameters: key to Activity against 231: +, active; −, no activity; +/−, poorly active
Procedure: as §1

[7] = tested on: normal NIH3T3 mouse fibroblasts; assay: CyQuant cell viability/proliferation assay, NIH3T3; format: cell-based; parameters: key to Activity against 3T3: +, active; −, no activity; +/−, poorly active
Procedure: as §1

[8] = tested on: GSH levels in U251 MG cells; assay: Glutathione (GSH) levels in U251 MG cells
Procedure: Reduced glutathione (GSH) and oxidized glutathione disulfide (GSSG) levels were assayed using a commercially available kit (Cayman Chemical, Ann Arbor, Mich.) and following the manufacturer's instructions.

[9] = tested on: STAT3 DNA-binding activity; assay: STAT3 DNA-binding activity (EMSA) of nuclear extracts from treated tumor cells; details: 5 micromolar, time course
Procedure: Positions of STATs:DNA complexes or proteins in gel are labeled; control lanes (0) represent nuclear extracts or whole-cell lysates prepared from 0.05% DMSO-treated cells.
Nuclear extract preparations and DNA-binding/electrophoretic mobility shift assay (EMSA) were carried out as previously described (Xu, supra). Nuclear extract preparations and DNA-binding activity/electrophoretic mobility shift assay (EMSA) were carried out as previously described. U251 MG and MDA-MB-231 cells culture were pretreated with different concentrations of the compounds for the indicated period and then harvested for nuclear extract preparation and DNA-binding assay with EMSA analysis. […] Except where indicated, nuclear extracts were pre-incubated with compound for 30 min at room temperature prior to incubation with the radiolabeled probe for 30 min at 30° C. before subjecting to EMSA analysis.

[10] = Table 1 grade, Table 1/FIG. 2 compound numbering

Chain of Stat3 (P40763 whole entry, species assumed): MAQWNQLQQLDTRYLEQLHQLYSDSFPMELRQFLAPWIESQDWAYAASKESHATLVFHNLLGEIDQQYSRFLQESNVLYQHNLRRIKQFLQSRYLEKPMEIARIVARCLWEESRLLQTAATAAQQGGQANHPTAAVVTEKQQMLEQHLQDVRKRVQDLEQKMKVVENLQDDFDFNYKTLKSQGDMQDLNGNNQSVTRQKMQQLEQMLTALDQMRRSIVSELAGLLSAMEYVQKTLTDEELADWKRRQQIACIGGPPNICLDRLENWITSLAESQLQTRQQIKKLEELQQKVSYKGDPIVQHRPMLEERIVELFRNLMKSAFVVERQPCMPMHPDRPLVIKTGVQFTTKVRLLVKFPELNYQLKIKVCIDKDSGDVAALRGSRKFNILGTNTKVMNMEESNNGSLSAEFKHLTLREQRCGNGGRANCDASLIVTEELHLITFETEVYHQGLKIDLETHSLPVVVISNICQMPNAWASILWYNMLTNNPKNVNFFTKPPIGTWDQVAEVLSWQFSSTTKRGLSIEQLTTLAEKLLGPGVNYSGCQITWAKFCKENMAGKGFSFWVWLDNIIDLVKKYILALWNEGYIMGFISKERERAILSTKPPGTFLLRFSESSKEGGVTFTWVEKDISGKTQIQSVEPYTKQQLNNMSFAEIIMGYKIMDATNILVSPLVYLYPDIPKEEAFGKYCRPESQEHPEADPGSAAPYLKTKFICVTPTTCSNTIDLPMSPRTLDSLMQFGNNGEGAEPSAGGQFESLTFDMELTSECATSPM
T1 sequence (P42227 whole entry): as the sequence (P40763 whole entry, species assumed) above, with E760D counted along it

Row | SMILES | Inhibition of STAT3 DNA-binding activity in vitro (EMSA) [1] | Activity against U251 [2] | Activity against the cell lines, in words ([2]; Table 1/FIG. 2 numbering) | Activity against Stat3 (Stat3) | Effect on pY705STAT3 / STAT3 activity (immunoblot), in words [3] | Tyrosine-phosphorylation of STAT3 in cells treated with IL-6 [5] | other results
1 | C=C(C)C(=O)OC1CC(C)C2(OC)CCC(C)(C=C3OC(=O)C(CO)=C31)O2 (stereo not shown) [Compound 28] | moderate to no effect | − | moderate to weak activity | − | little effects on pY705STAT3 |  | 
2 | C=C1CC[C@H]2C(=C)CC[C@H]3C(=C)C(=O)O[C@@H]3[C@@H]12 [dehydrocostuslactone] |  |  |  |  |  | inhibited the tyrosine-phosphorylation of STAT3 | Intracellular glutathione content [4]: rapid drop in intracellular glutathione content
3 | C=C1C(=O)O[C@@H]2/C=C(\C)CC/C=C(\C)CC[C@@H]12 [costunolide, reference compound] |  |  |  |  |  | inhibited the tyrosine-phosphorylation of STAT3 | inhibition at 5 µM ([2]; Homo sapiens, U-251, at 5 μM, 72 h, Table 3 numbering (isolates 1-16)): 17.5%; Cell-type selectivity of growth inhibition, in words ([2]; Table 1/FIG. 2 numbering): generally toxic to U251MG and normal NIH3T3; Cell-type selectivity of growth inhibition, in words ([2]; Table 1/FIG. 2 numbering, listed as costinulide): non-specfically active against glioma U251MG and normal NIH3T3 mouse fibroblasts; Intracellular glutathione content [4]: rapid drop in intracellular glutathione content; Intracellular glutathione content ([4]; listed as costinulide): suppress the intracellular glutathione (GSH) pool; inhibition at 5 µM ([6]; Homo sapiens, MDA-MB-231, at 5 μM, 72 h, Table 3 numbering (isolates 1-16)): 10.5%; inhibition at 5 µM ([7]; Mus musculus, NIH3T3, at 5 μM, 72 h, Table 3 numbering (isolates 1-16), read-out: NIH-3T3 % inhibition): 41.6%; Effect on GSH levels [8]: suppressed GSH levels; Effect on pY705STAT3 / STAT3 activity (immunoblot), in words ([3]; listed as costinulide): little effect on STAT3 activity; also recorded: minimal effects on pY705STAT3; Inhibition of pY705STAT3 (immunoblot), in words ([3]; Table 3 numbering (isolates 1-16)): negligible or weak
4 | CC=C(C)C(=O)OC1CC(C)C2(O)CCC(C)(C=C3OC(=O)C(COC(C)=O)=C31)O2 (stereo not shown) [Compound 20] | strong inhibition |  |  | + | early inhibition at 15-30 min |  | IC50 ([2]; 72-h treatment, Table 1/FIG. 2 numbering, read-out: IC50 for the inhibition of U251MG cell viability): 4.3 µM; Cell-type selectivity of growth inhibition, in words ([2]; Table 1/FIG. 2 numbering): selective against the growth of human glioma U251MG cells; Activity against 231 [6, 10]: +; Activity against 3T3 [7, 10]: +/−; Inhibition of STAT3 DNA-binding activity in treated cells (EMSA) [9]: early inhibition at 15-30 min
5 | CC=C(C)C(=O)OC1CC(C)C2(O)CCC(C)(C=C3OC(=O)C(CO)=C31)O2 (stereo not shown) [Compound 19] | moderate to no effect | − | moderate to weak activity | − | little effects on pY705STAT3 |  | 
6 | C=C(C)C(=O)OC1CC(C)C2(O)CCC(C)(C=C3OC(=O)C(CO)=C31)O2 (stereo not shown) [Compound 18] | moderate to no effect | +/− | moderate to weak activity | − | little effects on pY705STAT3 |  | 
7 | C/C1=C\[C@H]2OC(=O)[C@@H](C)[C@@H]2CC/C(C)=C/CC1 [dihydrocostunolide] |  |  |  |  |  | failed to exert inhibitory action toward STAT3 tyrosine phosphorylation | 
